Measured values taken from PMC6748986, “Potent modulation of the CepR quorum sensing receptor and virulence in a Burkholderia cepacia complex member using non-native lactone ligands” (Scientific Reports, 2019).
Several values for one entry are separate records, joined by “and”; a condition that tells them apart may be missing. Identical values can stand only once.

Legend:
[1] = molecular target: T1, CepR (Burkholderia cenocepacia, UniProt B4EMD0); test: CepR antagonism in E. coli β-galactosidase reporter (Ec-reporter), competition against C8-AHL; format: cell-based, B. cenocepacia; conditions: for Inh% (100-Act%): Table S3, Ec-reporter
T1 sequence (B4EMD0 1-239): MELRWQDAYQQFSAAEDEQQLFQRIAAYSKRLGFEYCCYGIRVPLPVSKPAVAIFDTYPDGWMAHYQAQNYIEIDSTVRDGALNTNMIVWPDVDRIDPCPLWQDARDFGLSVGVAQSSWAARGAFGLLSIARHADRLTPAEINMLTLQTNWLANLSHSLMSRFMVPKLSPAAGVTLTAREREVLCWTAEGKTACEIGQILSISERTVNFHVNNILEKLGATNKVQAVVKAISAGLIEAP
Text: (§1) We began our study by screening the AHL library for CepR modulators using an E. coli-based two plasmid reporter system (Ec-reporter)[38]–[40]. Certain members of the Bcc harbor additional QS systems that are either AHL-based (e.g., BviI/BviR in B. vietnamiensis)[41] or diffusible signal factor (DSF)-based (B. cenocepacia)[42], and at least one member of the Bcc has multiple receptors that respond to C8-AHL (e.g., CepR and CepR2 in B. cenocepacia)[43]. Thus, we reasoned that using a CepR reporter in a heterologous background could simplify our initial analyses. We modified our previously reported E. coli-based two plasmid β-galactosidase reporter system to develop a CepR Ec-reporter (see Methods). The first plasmid, pJN105-cepR, contains CepR from B. cenocepacia under the control of the L-arabinose inducible pBAD promoter. A second plasmid contains a transcriptional fusion of lacZ to the cepI promoter region. The two plasmids were co-transformed into a QS mutant E. coli strain (JLD271 ∆sdiA) that lacks its LuxR-type receptor, SdiA. Using this reporter system, if an exogenously -added compound is able to interact with CepR, this will affect the protein’s interaction with the cepI promoter region and alter β-galactosidase production. Enzyme production, and thereby CepR activity, is then measurable via the degradation of a colorimetric substrate for β-galactosidase. Using this new Ec-reporter, we observed robust activity of CepR in response to its native ligand C8-AHL, with an EC50 of 5 nM (Table 1).
To identify antagonists of CepR, we screened the AHL library (at 100 μM) in competition against the native ligand C8-AHL (at approximately twice its EC50 value, 0.01 μM) in the Ec-reporter. […] The active compounds were subjected to dose-response analyses in the Ec-reporter to obtain IC50 values and assess their relative potencies (Table 2; see Table S3 for complete screening data and Fig. S3 for dose-response curves). One general trend that we noted at the outset was the majority of the antagonists had acyl tails of similar or shorter overall length than CepR’s native ligand, C8-AHL. From this set, the strongest antagonists could be divided into two classes: (i) “short alkyl tail” AHLs or analogs thereof, and (ii) phenylacetanoyl HLs (PHLs). The discovery that the latter compounds were CepR antagonists was perhaps not surprising, as we have found substituted PHLs to strongly antagonize the majority of the LuxR-type receptors studied in our laboratory to date[22],[24],[29],[45],[46].
(§2) E. coli β-galactosidase reporter assays (derived from ref.[63]) and reagents used to obtain primary screening and dose-response data were performed as previously described[22],[60],[64], with the following modifications: E. coli JLD271 (∆sdiA) was co-transformed iteratively with pSC11-cepI and pJN105-cepR via electroporation. A single colony was used to start overnight cultures in LB medium + ampicillin (100 μg/mL) + gentamicin (15 μg/mL). A 1:10 dilution of overnight culture was grown in fresh medium to OD600 = 0.25. A sterile solution of L-arabinose in water (27 mM final concentration) was added to induce protein expression, after which cells were plated in 96-well plates containing varying concentrations of compound (200 μL total volume).
(§3) Cells were grown for 4 h, OD600 was read, 50 μL aliquots from each well were permeabilized in 200 μL Z Buffer, and then 150 μL of this mixture used to measure the cleavage of 25 μL of 4 mg/mL CPRG in phosphate buffered saline (PBS) at 37 °C until positive control wells developed a deep red color (~30 min). For all agonism assays, synthetic compound (100 μM) was screened alongside and compared to the native ligand, C8-AHL (100 μM). For all primary and dose-response antagonism assays, the concentration of native ligand utilized was 10 nM (approximately equal to twice its EC50 value). […] At least 3 separate trials were performed using unique cultures on separate days.

[2] = molecular target: T1, CepR; test: CepR agonism in E. coli β-galactosidase reporter (Ec-reporter) JLD271 [pJN105-cepR + pSC11-cepI]; format: cell-based, B. cenocepacia; conditions: for Maximal Activation (%): activity for 100 μM C8-AHL set to 100%, error ±10%
Text: as §1
We used the CepR Ec-reporter to perform a primary agonism screen at a single compound concentration (100 μM, or its solubility limit, indicated in Table S1). Thirty-one compounds displaying ≥70% agonistic activity in CepR (relative to C8-AHL) were identified and subjected to dose-response analyses using the Ec-reporter (Table I; see Table S2 for complete screening data and Fig. S3 for dose-response curves).
as §2, §3

[3] = screening conc. 100 μM, against 10 nM C8-AHL
[4] = Table S2, Ec-reporter, screening conc. 100 μM
[5] = Ec-reporter, agonism dose-response

SMILES	Inh% (100-Act%) [1, 3]	Act% [2, 4]	further results
CCCC(=O)CC(=O)NC1CCSC1=O (centres unmarked) [3’O-C6-TL]	4.0%	1.6%	–
CCCCCC(=O)CC(=O)NC1CCSC1=O (centres unmarked) [3’O-C8-TL]	-20%	61%	–
CCCCCCCC(=O)CC(=O)N[C@H]1CCOC1=O [3’O-C10-AHL, reference compound]	-60%	110%	EC50 ([2]; Table S2, Ec-reporter): 2300 nM
CCCCCCCCCC(=O)CC(=O)Nc1ccccc1 [3’O-C12-analine, reference compound]	16%	52%	–
CCCCCCCCCCCCCC(=O)CC(=O)NC1CCOC1=O (centres unmarked) [3’O-C16-AHL, reference compound]	-50%	8.3%	–
CCCCCCCCCC(O)CC(=O)N[C@H]1CCOC1=O (some centres unmarked) [3’OH-C12-AHL, reference compound]	0.0%	52%	–
CCCCCCCCCCCC(O)CC(=O)N[C@@H]1CCOC1=O (some centres unmarked) [3’OH-C14-AHL, reference compound]	-40%	33%	–
CCCCCCCCCCCCCC(O)CC(=O)NC1CCOC1=O (centres unmarked) [3’OH-C16-AHL, reference compound]	-50%	8.0%	–
CCCCCCCCS(=O)(=O)N[C@H]1CCOC1=O [Compound A13]	17%	108%	CepR agonism in words ([2]; Ec-reporter): failed to activate CepR; EC50 [2, 5]: 150 nM; Maximal Activation (%) ([2]; Ec-reporter): 110%
O=C(CCCc1ccccc1)N[C@@H]1CCOC1=O [Compound B3]	-30%	-0.4%	–
O=C(Cc1ccc(Br)cc1)N[C@@H]1CCOC1=O [Compound B4]	0.0%	-0.5%	–
O=C(CCCc1c[nH]c2ccccc12)N[C@@H]1CCOC1=O [Compound B5]	-30%	7.2%	–
O=C(N[C@H]1CCOC1=O)c1ccc(Br)cc1 [Compound B6]	18%	56%	–
O=C(N[C@H]1CCOC1=O)c1ccccc1 [Compound B8]	1.0%	10%	–
O=C(CCc1ccccc1)N[C@H]1CCOC1=O [Compound B9]	-40%	88%	EC50 fold higher than those for substituted PPHLs ([2]; Ec-reporter): ~ 1000 fold; EC50 [2, 5]: 1000 nM; Maximal Activation (%) ([2]; Ec-reporter): 88%
O=C(C=Cc1ccccc1)NC1CCOC1=O (centres unmarked) [Compound B10]	11%	60%	–
O=C(Cc1c[nH]c2ccccc12)N[C@H]1CCOC1=O [Compound B13]	22%	-1.1%	–
O=C(CCc1c[nH]c2ccccc12)N[C@H]1CCOC1=O [Compound B14]	-40%	96%	–
O=C(Cc1ccccc1)N[C@H]1CCOC1=O [Compound C1]	–	0.0%	CepR antagonism in words ([1]; Ec-reporter): inactive; Maximal Inhibition (%) ([1]; Ec-reporter, against 10 nM C8-AHL): 8%
O=C(Cc1ccc(F)cc1)N[C@H]1CCOC1=O [Compound C2]	4.0%	0.1%	CepR antagonism in words ([1]; Ec-reporter): inactive as antagonists
O=C(Cc1cccc(F)c1)N[C@H]1CCOC1=O [Compound C3]	20%	0.2%	CepR antagonism in words ([1]; Ec-reporter): inactive as antagonists

SMILES	Inh% (100-Act%) [1, 3]	Act% [2, 4]	further results
O=C(Cc1ccccc1F)N[C@H]1CCOC1=O [Compound C4]	3.0%	0.1%	CepR antagonism in words ([1]; Ec-reporter): inactive as antagonists
O=C(Cc1ccc(Cl)cc1)N[C@H]1CCOC1=O [Compound C5]	25%	0.1%	–
CCCCCCC(=O)N[C@H]1CCOC1=O [Compound C7-AHL, reference compound]	-10%	106%	–
CCCCCCCCCC(=O)N[C@H]1CCOC1=O [Compound C10-AHL, decanoyl L-homoserine lactone, reference compound]	-30%	87%	EC50 [2, 5]: 109 nM and 110 nM; Maximal Activation (%) ([2]; Ec-reporter): 87%
CCCCCCCCCC(=O)NC1CCCC1 [Compound C10-CPA, reference compound]	4.0%	48%	–
O=C(Cc1ccc(I)cc1)N[C@H]1CCOC1=O [Compound C10]	-10%	29%	–
CCCCCCCCCCCC(=O)N[C@H]1CCOC1=O [Compound C12-AHL, Dodecanoyl L-homoserine lactone, reference compound]	-30%	98%	EC50 [2, 5]: 310 nM; Maximal Activation (%) ([2]; Ec-reporter): 98%
CCCCCCCCCCCCCC(=O)N[C@H]1CCOC1=O [Compound C14-AHL, tetradecanoyl L-homoserine lactone, reference compound]	-10%	49%	CepR agonism in words ([2]; Ec-reporter): inactive; Maximal Activation (%) ([2]; Ec-reporter): 49%
CCCCCCCCCCCCCCCC(=O)N[C@H]1CCOC1=O [Compound C16-AHL, hexadecanoyl L-homoserine lactone, reference compound]	–	–	Inh% (100-Act%) ([1]; screening conc. 25 μM): -10%; CepR agonism in words ([2]; Ec-reporter): inactive; Maximal Activation (%) ([2]; Ec-reporter): 35%; Act% ([2]; Table S2, Ec-reporter, screening conc. 25 μM): 35%
O=C(Cc1c(F)c(F)c(F)c(F)c1F)N[C@H]1CCOC1=O [Compound C16]	-30%	0.1%	–
[N-]=[N+]=Nc1ccc(CC(=O)N[C@H]2CCOC2=O)cc1 [Compound C17]	26%	1.0%	–
O=C(Cc1ccc(-c2ccccc2)cc1)N[C@H]1CCOC1=O [Compound C18]	-20%	1.4%	–
Cc1ccc(CC(=O)N[C@H]2CCOC2=O)cc1 [Compound C19]	-20%	-1.6%	–
O=C(Cc1ccc(C(F)(F)F)cc1)N[C@H]1CCOC1=O [Compound C20]	-52%	0.3%	–
Nc1ccc(CC(=O)N[C@H]2CCOC2=O)cc1 [Compound C21]	-20%	21%	–
CC(C)(C)OC(=O)Nc1ccc(CC(=O)N[C@H]2CCOC2=O)cc1 [Compound C22]	-70%	1.1%	–
O=C(Cc1ccc(O)cc1)N[C@H]1CCOC1=O [Compound C23]	-10%	-0.5%	–
CC(C)(C)OC(=O)NCCCCC(=O)N[C@H]1CCOC1=O [Compound D1]	11%	16%	–
O=C(CCc1ccco1)N[C@H]1CCOC1=O [Compound D2]	0.0%	70%	–
O=C(CCc1cccs1)N[C@H]1CCOC1=O [Compound D3]	-40%	87%	–
